Results taken from publication PMC12646670, “Fatty acid transport protein 2 inhibition enhances glucose tolerance through α cell–mediated GLP-1 secretion” (The Journal of Clinical Investigation, 2025).

Biological target: T1, FATP2 (Mus musculus, UniProt O35488)
T1 construct: gene Slc27a2; endogenous full-length FATP2 in native mouse αTC1-6 pancreatic α cell line (ATCC)
Experiment: BODIPY-labelled C18 fatty acid uptake (QBT fluorescence assay)
Type: cell-based
Conditions: native αTC1-6 cells; 1 h preincubation, 37°C; 2.5 μM BODIPY-C18 fatty acid with 0.2% fatty acid-free albumin; uptake read at 60 s
Text: BODIPY-labelled C18 fatty acid uptake (QBT fluorescence assay) on FATP2 | fatty acid uptake was blocked by the FATP2 inhibitor lipofermata

T1 sequence (O35488 whole entry): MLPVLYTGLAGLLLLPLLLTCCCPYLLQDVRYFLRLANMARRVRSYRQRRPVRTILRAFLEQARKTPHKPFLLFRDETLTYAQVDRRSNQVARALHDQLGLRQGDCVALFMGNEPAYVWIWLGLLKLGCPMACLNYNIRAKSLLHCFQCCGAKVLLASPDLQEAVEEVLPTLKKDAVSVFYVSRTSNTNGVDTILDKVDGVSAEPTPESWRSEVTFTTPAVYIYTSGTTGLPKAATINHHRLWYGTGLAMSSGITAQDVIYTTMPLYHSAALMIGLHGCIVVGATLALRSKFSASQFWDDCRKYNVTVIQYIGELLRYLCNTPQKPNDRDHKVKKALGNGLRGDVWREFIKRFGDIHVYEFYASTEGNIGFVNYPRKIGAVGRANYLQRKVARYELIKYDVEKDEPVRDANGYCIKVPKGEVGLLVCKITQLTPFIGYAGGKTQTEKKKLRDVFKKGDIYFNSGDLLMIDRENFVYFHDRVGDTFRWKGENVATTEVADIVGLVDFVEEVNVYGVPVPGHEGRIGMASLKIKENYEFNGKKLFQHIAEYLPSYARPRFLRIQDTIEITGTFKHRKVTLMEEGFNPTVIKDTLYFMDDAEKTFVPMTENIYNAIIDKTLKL

IC50: 5.4 µM
SMILES: O=C1Nc2ccc(Br)cc2C12NN=C(c1ccccc1)S2 (stereo not shown) [lipofermata, 5-bromo-5′-phenylspiro[3H-1,3,4-thiadiazole-2,3′-indoline]-2-1]
